For 23 molecules, IC50 results are on record in patent US11498930B2 (BLUERAY THERAPEUTICS (SHANGHAI) CO., LTD., priority 2018, dated 2022).

Assay [1] has as its system phosphorylation level of intracellular protein kinase (ERK) in MOLM13 cells. Kind of assay: Phosphorylated protein kinase (p-ERK) cell experiment (AlphaLISA). In kind it is cell-based. The following applies: Homo sapiens, MOLM-13, MOLM13 cells. In general terms: Alpha assays give light when donor and acceptor beads are brought close together.
Assay [2] concerns the target SHP2^E76A protein (Homo sapiens (Human), UniProt Q06124, E76A). The experiment in a line: SHP2 enzyme activity inhibition experiment. Format: biochemical. In outline: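 Compounds tested at 10 concentrations in 3-fold serial dilution. IC50 from a four-parameter Hill-slope nonlinear fit of enzyme activity versus concentration.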
Assay [3] relates to MOLM-13 cells. The experiment in a line: MOLM-13 cell proliferation experiment. To be noted: Homo sapiens. Format: cell-based. As for the experimental part: After 3 days, 5 µL of CellTiter-Glo reagent (Promega, ZG7572) was added to each well, and the plates were kept at room temperature in the dark for 10 minutes. The […] was detected by Spectra max i3 (Molecular Devices). The relative growth rate of the treated cells was compared with that of DMSO control.

The mark [4] stands for this setting: p-ERK, 2 hours of cell treatment, Tables 2.1 and 2.2, read-out: IC50.
Setting [5] is: SHP2 enzyme activity, Tables 1.1 and 1.2, read-out: IC50.
The mark [6] stands for this setting: MOLM-13, 72 h, MOLM-13 cell proliferation, 3 days, Tables 3.1 and 3.2, read-out: IC50.
Where [7] appears, read: Table 4, read-out: SHP2 enzyme activity IC50.
Where [8] appears, read: MOLM-13, read-out: MOLM-13 cell proliferation IC50.

Molecules are shown by their SMILES. Like-named read-outs stand apart in the source and are kept apart here.

Sequence of SHP2^E76A protein (Q06124 whole entry E76A): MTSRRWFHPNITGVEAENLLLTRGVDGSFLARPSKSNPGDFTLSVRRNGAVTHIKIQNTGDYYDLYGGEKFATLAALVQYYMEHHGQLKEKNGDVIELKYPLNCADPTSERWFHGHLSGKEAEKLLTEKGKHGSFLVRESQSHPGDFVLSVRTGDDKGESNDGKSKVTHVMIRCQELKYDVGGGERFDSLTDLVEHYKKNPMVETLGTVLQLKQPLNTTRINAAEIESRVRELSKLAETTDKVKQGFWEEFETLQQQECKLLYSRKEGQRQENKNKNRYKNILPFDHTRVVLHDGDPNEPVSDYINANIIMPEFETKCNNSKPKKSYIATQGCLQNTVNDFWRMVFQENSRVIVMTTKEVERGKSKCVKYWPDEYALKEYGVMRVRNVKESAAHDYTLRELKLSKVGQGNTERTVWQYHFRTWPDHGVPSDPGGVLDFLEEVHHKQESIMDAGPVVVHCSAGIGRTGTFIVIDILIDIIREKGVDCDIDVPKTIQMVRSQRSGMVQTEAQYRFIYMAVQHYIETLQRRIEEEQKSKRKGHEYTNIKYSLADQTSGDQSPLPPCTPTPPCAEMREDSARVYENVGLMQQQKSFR

For `CN(C)c1nccc(Sc2cnc(N3CCC4(CCC[C@H]4N)CC3)n3ccnc23)c1Cl` [(R)-8-(8-((3-chloro-2-(dimethylamino)pyridin-4-yl)thio)imidazo[1,2-c]pyrimidin-5-yl)-8-azaspiro[4.5]decan-1-amine], the IC50 in assay [1] (setting [4]) is 0.1 to 1 µM; in assay [2] (setting [5]) it was less than 0.1 µM; in assay [3] (setting [6]), 0.1 to 1 µM.
For the molecule `N[C@@H]1CCCC12CCN(c1ncc(Sc3ccnc(F)c3Cl)c3nccn13)CC2` [(R)-8-(8-((3-chloro-2-fluoropyridin-4-yl)thio)imidazo[1,2-c]pyrimidin-5-yl)-8-azaspiro[4.5]decan-1-amine], the IC50 in assay [1] (setting [4]) was 0.1 to 1 µM; in assay [2] (setting [5]), less than 0.1 µM; in assay [3] (setting [6]) it was 0.1 to 1 µM.
In the case of `COc1nccc(Sc2cnc(N3CCC4(CCC[C@H]4N)CC3)n3ccnc23)c1Cl` [(R)-8-(8-((3-chloro-2-methoxypyridin-4-yl)thio)imidazo[1,2-c]pyrimidin-5-yl)-8-azaspiro[4.5]decan-1-amine], the figures for the IC50 in assay [1] (setting [4]), in assay [2] (setting [5]) and in assay [3] (setting [6]) were 0.1 to 1 µM, less than 0.1 µM and 0.1 to 1 µM, respectively.
Take `Cc1nccc(Sc2cnc(N3CCC4(CCC[C@H]4N)CC3)n3ccnc23)c1Cl` [(R)-8-(8-((3-chloro-2-methyl-pyridin-4-yl)thio)imidazo[1,2-c]pyrimidin-5-yl)-8-azaspiro[4.5]decan-1-amine]: the IC50 is 0.18 µM in assay [1] (Table 4, read-out: p-ERK IC50); 0.1 to 1 µM in assay [1] (setting [4]); less than 0.1 µM in assay [2] (setting [5]); 0.04 µM in assay [2] (setting [7]); less than 0.1 µM in assay [3] (setting [6]); 0.058 µM in assay [3] (setting [8]).
Consider `Cc1nccc(Sc2cnc(N3CCC4(CCC[C@H]4N)CC3)n3cnnc23)c1Cl` [(R)-8-(8-((3-chloro-2-methylpyridin-4-yl)thio)-[1,2,4]triazolo[4,3-c]pyrimidin-5-yl)-8-azaspiro[4.5]decan-1-amine], for which the IC50 is 0.177 µM in assay [1] (Table 4, read-out: p-ERK IC50); 0.1 to 1 µM in assay [1] (setting [4]); less than 0.1 µM in assay [2] (setting [5]); 0.027 µM in assay [2] (setting [7]); 0.1 to 1 µM in assay [3] (setting [6]); 0.232 µM in assay [3] (setting [8]).
Regarding `N[C@@H]1CCCC12CCN(c1ncc(Sc3ccnnc3Cl)c3nccn13)CC2` [(R)-8-(8-((3-chloropyridazin-4-yl)thio)imidazo[1,2-c]pyrimidin-5-yl)-8-azaspiro[4.5]decan-1-amine], the IC50 in assay [1] (setting [4]), in assay [2] (setting [5]) and in assay [3] (setting [6]) was 0.1 to 1 µM throughout.
For the molecule `N[C@@H]1CCCC12CCN(c1ncc(Sc3ccncc3Cl)c3nncn13)CC2` [(R)-8-(8-((3-chloropyridin-4-yl)thio)-[1,2,4]triazolo[4,3-c]pyrimidin-5-yl)-8-azaspiro[4.5]decan-1-amine], the IC50 is 0.357 µM in assay [1] (Table 4, read-out: p-ERK IC50); 0.1 to 1 µM in assay [1] (setting [4]); 0.1 to 1 µM in assay [2] (setting [5]); 0.1 µM in assay [2] (setting [7]); 0.1 to 1 µM in assay [3] (setting [6]); 0.324 µM in assay [3] (setting [8]).
Turning to `N[C@@H]1CCCC12CCN(c1ncc(Sc3ccncc3Cl)c3nccn13)CC2` [(R)-8-(8-((3-chloropyridin-4-yl)thio)imidazo[1,2-c]pyrimidin-5-yl)-8-azaspiro[4.5]decan-1-amine], the IC50 in assay [1] (setting [4]), in assay [2] (setting [5]) and in assay [3] (setting [6]) was 0.1 to 1 µM each time.
For `Nc1cc(Sc2cnc(N3CCC4(CCC[C@H]4N)CC3)n3ncnc23)c(Cl)c(Cl)n1` [(R)-8-(8-((6-amino-2,3-dichloropyridin-4-yl)thio)-[1,2,4]triazolo[1,5-c]pyrimidin-5-yl)-8-azaspiro[4.5]decan-1-amine], the IC50 in assay [1] (setting [4]), in assay [2] (setting [5]) and in assay [3] (setting [6]) was 0.1 to 1 µM throughout.
Consider `Nc1cc(Sc2cnc(N3CCC4(CCC[C@H]4N)CC3)n3cnnc23)c(Cl)c(Cl)n1` [(R)-8-(8-((6-amino-2,3-dichloropyridin-4-yl)thio)-[1,2,4]triazolo[4,3-c]pyrimidin-5-yl)-8-azaspiro[4.5]decan-1-amine], for which the IC50 in assay [1] (Table 4, read-out: p-ERK IC50) is 0.75 µM; in assay [1] (setting [4]), 0.1 to 1 µM; in assay [2] (setting [5]), less than 0.1 µM; in assay [2] (setting [7]) it was 0.02 µM; in assay [3] (setting [6]), 0.1 to 1 µM; in assay [3] (setting [8]) it was 0.303 µM.
In the case of `Nc1cc(Sc2cnc(N3CCC4(CC3)CC(F)(F)C[C@H]4N)n3ccnc23)c(Cl)c(Cl)n1` [(R)-8-(8-((6-amino-2,3-dichloropyridin-4-yl)thio)imidazo[1,2-c]pyrimidin-5-yl)-3,3-difluoro-8-azaspiro[4.5]decan-1-amine], the IC50 is 0.062 µM in assay [1] (Table 4, read-out: p-ERK IC50); less than 0.1 µM in assay [1] (setting [4]); less than 0.1 µM in assay [2] (setting [5]); 0.035 µM in assay [2] (setting [7]); 0.1 to 1 µM in assay [3] (setting [6]); 0.15 µM in assay [3] (setting [8]).
Turning to `Nc1cc(Sc2cnc(N3CCC4(CCC[C@H]4N)CC3)n3ccnc23)c(Cl)c(Cl)n1` [(R)-8-(8-((6-amino-2,3-dichloropyridin-4-yl)thio)imidazo[1,2-c]pyrimidin-5-yl)-8-azaspiro[4.5]decan-1-amine], the IC50 is 0.009 µM in assay [1] (Table 4, read-out: p-ERK IC50); less than 0.1 µM in assay [1] (setting [4]); less than 0.1 µM in assay [2] (setting [5]); 0.012 µM in assay [2] (setting [7]); less than 0.1 µM in assay [3] (setting [6]); 0.016 µM in assay [3] (setting [8]).
In the case of `Cc1nc(N)cc(Sc2cnc(N3CCC4(CC3)CC(F)(F)C[C@H]4N)n3ccnc23)c1Cl` [(R)-8-(8-((6-amino-3-chloro-2-methyl-pyridin-4-yl)thio)imidazo[1,2-c]pyrimidin-5-yl)-3,3-difluoro-8-azaspiro[4.5]decan-1-amine], the IC50 is 0.097 µM in assay [1] (Table 4, read-out: p-ERK IC50); less than 0.1 µM in assay [1] (setting [4]); less than 0.1 µM in assay [2] (setting [5]); 0.026 µM in assay [2] (setting [7]); 0.15 µM in assay [3] (setting [8]).
In the case of `Cc1nc(N)cc(Sc2cnc(N3CCC4(CCC[C@H]4N)CC3)n3ccnc23)c1Cl` [(R)-8-(8-((6-amino-3-chloro-2-methyl-pyridin-4-yl)thio)imidazo[1,2-c]pyrimidin-5-yl)-8-azaspiro[4.5]decan-1-amine], the IC50 in assay [1] (Table 4, read-out: p-ERK IC50) was 0.037 µM; in assay [1] (setting [4]), less than 0.1 µM; in assay [2] (setting [7]), 0.017 µM; in assay [3] (setting [8]), 0.21 µM.
Turning to `N[C@@H]1CCCC12CCN(c1ncc(Sc3cccc4ccccc34)c3nccn13)CC2` [(R)-8-(8-(naphthalen-1-ylthio)imidazo[1,2-c]pyrimidin-5-yl)-8-azaspiro[4.5]decan-1-amine], the IC50 was 0.49 µM in assay [1] (Table 4, read-out: p-ERK IC50); 0.1 to 1 µM in assay [1] (setting [4]); less than 0.1 µM in assay [2] (setting [5]); 0.028 µM in assay [2] (setting [7]); 0.1 to 1 µM in assay [3] (setting [6]); 0.15 µM in assay [3] (setting [8]).
For `N[C@@H]1CCCC12CCN(c1ncc(Sc3ccnc4ccccc34)c3nccn13)CC2` [(R)-8-(8-(quinolin-4-ylthio)imidazo[1,2-c]pyrimidin-5-yl)-8-azaspiro[4.5]decan-1-amine], the IC50 is 0.031 µM in assay [1] (Table 4, read-out: p-ERK IC50); 0.1 to 1 µM in assay [1] (setting [4]); less than 0.1 µM in assay [2] (setting [5]); 0.02 µM in assay [2] (setting [7]); less than 0.1 µM in assay [3] (setting [6]); 0.099 µM in assay [3] (setting [8]).
In the case of `C=CC(=O)Nc1cccc(Sc2cnc(N3CCC4(CCC[C@H]4N)CC3)n3cnnc23)c1Cl` [(R)-N-(3-((5-(1-amino-8-azaspiro[4.5]decan-8-yl)-[1,2,4]triazolo[4,3-c]pyrimidin-8-yl)thio)-2-chlorophenyl)acrylamide], the values for the IC50 in assay [1] (setting [4]), in assay [2] (setting [5]) and in assay [3] (setting [6]) were 1 to 10 µM, 0.1 to 1 µM and 0.1 to 1 µM, respectively.
As for `C=CC(=O)Nc1cccc(Sc2cnc(N3CCC4(CCC[C@H]4N)CC3)n3ccnc23)c1Cl` [(R)-N-(3-((5-(1-amino-8-azaspiro[4.5]decan-8-yl)imidazo[1,2-c]pyrimidin-8-yl)thio)-2-chlorophenyl)acrylamide], the IC50 in assay [1] (setting [4]), in assay [2] (setting [5]) and in assay [3] (setting [6]) was 0.1 to 1 µM each time.
As for `N[C@@H]1COCC12CCN(c1ncc(Sc3cccc(Cl)c3Cl)c3ncnn13)CC2` [(S)-8-(8-((2,3-dichlorophenyl)thio)-[1,2,4]triazolo[1,5-c]pyrimidin-5-yl)-2-oxa-8-azaspiro[4.5]decan-4-amine], the IC50 in assay [1] (setting [4]) lay within 1 to 10 µM; in assay [2] (setting [5]) it was 0.1 to 1 µM; in assay [3] (setting [6]), 0.1 to 1 µM.
Consider `N[C@@H]1COCC12CCN(c1ncc(Sc3cccc(Cl)c3Cl)c3nncn13)CC2` [(S)-8-(8-((2,3-dichlorophenyl)thio)-[1,2,4]triazolo[4,3-c]pyrimidin-5-yl)-2-oxa-8-azaspiro[4.5]decan-4-amine], for which the IC50 was 0.168 µM in assay [1] (Table 4, read-out: p-ERK IC50); 0.1 to 1 µM in assay [1] (setting [4]); less than 0.1 µM in assay [2] (setting [5]); 0.02 µM in assay [2] (setting [7]); 0.1 to 1 µM in assay [3] (setting [6]); 0.892 µM in assay [3] (setting [8]).
Turning to `N[C@@H]1COCC12CCN(c1ncc(Sc3ccnc(Cl)c3Cl)c3nccn13)CC2` [(S)-8-(8-((2,3-dichloropyridin-4-yl)thio)imidazo[1,2-c]pyrimidin-5-yl)-2-oxa-8-azaspiro[4.5]decan-4-amine], the values for the IC50 in assay [1] (setting [4]), in assay [2] (setting [5]) and in assay [3] (setting [6]) were 0.1 to 1 µM, less than 0.1 µM and 0.1 to 1 µM, respectively.
In the case of `Nc1nccc(Sc2cnc(N3CCC4(CC3)COC[C@H]4N)n3cnnc23)c1Cl` [(S)-8-(8-((2-amino-3-chloropyridin-4-yl)thio)-[1,2,4]triazolo[4,3-c]pyrimidin-5-yl)-2-oxa-8-azaspiro[4.5]decan-4-amine], the IC50 lay in the range of 0.1 to 1 µM in assay [1] (setting [4]), 0.1 to 1 µM in assay [2] (setting [5]) and 1 to 10 µM in assay [3] (setting [6]).
As to `Nc1nccc(Sc2cnc(N3CCC4(CC3)COC[C@H]4N)n3ccnc23)c1Cl` [(S)-8-(8-((2-amino-3-chloropyridin-4-yl)thio)imidazo[1,2-c]pyrimidin-5-yl)-2-oxa-8-azaspiro[4.5]decan-4-amine], the IC50 in assay [1] (setting [4]) was 0.1 to 1 µM; in assay [2] (setting [5]) it was less than 0.1 µM; in assay [3] (setting [6]) it was 0.1 to 1 µM.
